US7109193B2, “Tricyclic diazepines tocolytic oxytocin receptor antagonists” (Wyeth, priority 2001, dated 2006)

Target: T1, human vasopressin V2 receptor subtype (Homo sapiens, UniProt P30518)
T1 construct: host or cells: CHO cells (pZeoSV vector)
Assay: Vasopressin binding in Chinese Hamster Ovary cell membranes expressing human vasopressin V2 subtype receptors
Settings: 100 nM, CHO cell membranes, [3H]arginine vasopressin, values without parentheses
Method: Vasopressin Binding in Chinese Hamster Ovary Cell Membranes Expressing Human Vasopressin V2 Subtype Receptors
Chinese Hamster Ovary (CHO) cells stably transfected with the human V2 subtype receptors were obtained from M. Thibonnier, Case Western Reserve University School of Medicine, Cleveland, Ohio.
A. Passaging and Amplification of Cells:
The trypsin is removed by aspiration and the cells dislodged by tapping. Cell Culture medium (e.g. 30 mL for 1:30 split) is immediately added and mixed well to inactivate trypsin. 1 mL of detached cells is added to new culture flasks containing fresh Cell Culture medium (e.g. into 25 mL per T-150 flask), and mixed gently. The cells are incubated at 37° C. in 5% CO2. The medium is changed at 3 to 4 day interval (or as appropriate). […] All steps are done under sterile conditions. B. Membrane Preparation: The cells are washed twice gently with Hank's Balanced Salt solution (e.g. use 10 mL per T-150 flask). […] The contents are transferred to centrifuge tubes (50 mL) kept in ice bath. All subsequent steps are done at 4° C. The tubes are centrifuged at 300×g for 15 min (1380 rpm on SORVAL, Model RT6000D, using the rotor for 50 mL tubes). The supernatant is discarded and the cells suspended in homogenizing buffer (10 mM Tris-HCl containing 0.25 M sucrose and 1 mM EDTA, pH 7.4) ensuring that the volume of the buffer is about ten times the volume of the cell pellet. The cells are pooled into a centrifuge tube (50 mL) and homogenized with a Polytron at setting 6 for 10 sec. The homogenate is transferred into a Potter-Elvjehm homogenizer and homogenized with 3 strokes. The homogenate is centrifuged at 1500×g for 60 min at 4° C. (3100 rpm using SORVAL, model RT6000D, using the rotor for 50 mL tubes). The pellet is discarded. The supernatant is centrifuged at 100,000×g for 60 min. at 4° C. (Beckman L8-80M ultracentrifuge; spin at 37,500 rpm with rotor type 70 Ti for 50 mL tubes; 38,000 rpm with type 80Ti for 15 mL tubes; or 35,800 rpm with rotor type 45Ti). The supernantant is discarded and the pellet suspended in 3 to 4 mL of Tris buffer (50 mM TRIS-HCl, pH 7.4). The protein content is estimated by the Bradford or Lowry method. The volume of the membrane suspension is adjusted with the membrane buffer (50 mM Tris-HCl containing 0.1% BSA and 0.1 mM PMSF) to give 3.0 mg/mL (or as appropriate) of protein. The membranes are aliquoted and stored at −70° C. C. Radioligand Binding Assay: In wells of a 96-well format microtiter plate, is added 90, 110 or 130 μL (to make up a final volume of 200 μL) of assay buffer containing 50 mM of Tris-HCl (pH 7.4), […], 1 mg % aprotinin, 1 mg % leupeptin, 2 mg % 1,10-phenanthroline, 10 mg % trypsin inhibitor, and 0.1 mM PMSF. The inhibitors are added on the day of the experiment. The components are mixed at room temperature, and then kept in ice bath following adjustment of the pH to 7.4. […] For vasopressin and other peptide ligands 20 μL of 50% DMSO is added and the assay buffer volume is adjusted accordingly. To each well is added 50 μL of frozen membrane suspension thawed immediately prior to use and diluted in assay buffer to the required concentration (equivalent to 25 to 50 μg of protein/well as needed). 20 μL of 8 nM [^3H]arginine vasopressin ligand in the assay buffer, prepared just before use is added and incubated at room temperature for 60 min. shaking the plate on a mechanical shaker for the first 15 min. The incubation is stopped by rapid filtration of the plate contents followed by wash with ice-cold buffer (50 mM Tris-HCl, pH 7.4) using a cell harvester (Tomtek and Printed filtermat-B filter paper). The filter paper is thoroughly dried (7–12 min. in a microwave oven) and impregnated with MeltiLex B/H melt-on scintillation wax sheets and the radioactivity counted in a betaplate scintillation counter.

inhibition at 0.1 µM [%]	Compound	V2 % inhibition @ 100 nM [%]
-4	COc1ccccc1-c1ccc(C(=O)N2Cc3ccc(C(=O)N4CCC(N5CCCC5)CC4)n3Cc3ccccc32)cc1C [Example 137, {10-[(2′-Methoxy-2-methyl[1,1′-biphenyl]-4-yl)carbonyl]-10,11-dihydro-5H-pyrrolo[2,1-c][1,4]benzodiazepin-3-yl}[4-(1-pyrrolidinyl)-1-piperidinyl]methanone]	
	COc1cc(C(=O)N2Cc3ccc(C(=O)N4CCC[C@H]4CN4CCCC4)n3Cc3ccccc32)ccc1-c1cccc2ccccc12 [Example 262, {10-[3-Methoxy-4-(1-naphthyl)benzoyl]-10,11-dihydro-5H-pyrrolo[2,1-c][1,4]benzodiazepin-3-yl}[(2S)-2-(1-pyrrolidinylmethyl)pyrrolidinyl]methanone]	4
3	Cc1ccccc1-c1ccc(C(=O)N2Cc3ccc(C(=O)NCCCn4ccnc4)n3Cc3ccccc32)cc1 [Example 127, N-[3-(1H-Imidazol-1-yl)propyl]-10-[(2′-methyl[1,1′-biphenyl]-4-yl)carbonyl]-10,11-dihydro-5H-pyrrolo[2,1-c][1,4]benzodiazepine-3-carboxamide]	
14	CN(C)CCCN(C)C(=O)c1ccc2n1Cc1ccccc1N(C(=O)c1ccc(-c3cccc4ccccc34)cc1Cl)C2 [Example 109, 10-[2-Chloro-4-(1-naphthyl)benzoyl]-N-[3-(dimethylamino)propyl]-N-methyl-10,11-dihydro-5H-pyrrolo[2,1-c][1,4]benzodiazepine-3-carboxamide]	
	COc1cc(C(=O)N2Cc3ccc(C(=O)N4CCC[C@H]4CN4CCCC4)n3Cc3ccccc32)ccc1-c1ccccc1Cl [Example 33, {[10-(2-Methoxy)-2′-chloro-[1,1′-biphenyl]-4-yl]carbonyl}-[(2S)-[(2-pyrrolidin-1-yl)methyl]pyrrolidin-1-yl]-10,11-dihydro-5H-pyrrolo[2,1-c][1,4]benzodiazepin-3-yl-methanone]	11
	{10-[(2,2′-Dimethoxy[1,1′-biphenyl]-4-yl)carbonyl]-10,11-dihydro-5H-pyrrolo[2,1-c][1,4]benzodiazepin-3-yl}(4-isopropyl-1-piperazinyl)methanone [Example 244]	9
	Cc1ccccc1-c1ccc(C(=O)N2Cc3ccc(C(=O)N4CC[C@@H](N(C)C)C4)n3Cc3ccccc32)cc1 [Example 280, [(3R)-3-(Dimethylamino)pyrrolidinyl]{10-[(2′-methyl[1,1′-biphenyl]-4-yl)carbonyl]-10,11-dihydro-5H-pyrrolo[2,1-c][1,4]benzodiazepin-3-yl}methanone]	6
39	COc1cc(C(=O)N2Cc3ccc(C(=O)N4CCC(N5CCCCC5)CC4)n3Cc3ccccc32)ccc1-c1cccc2ccccc12 [Example 118, {10-[3-Methoxy-4-(1-naphthyl)-benzoyl]-10,11-dihydro-5H-pyrrolo[2,1-c][1,4]benzodiazepin-3-yl}[4-(1-piperidinyl)-1-piperidinyl]methanone]	
15	COc1cc(-c2ccccc2C)c(Cl)cc1C(=O)N1Cc2ccc(C(=O)NCCN3CCCCC3)n2Cc2ccccc21 [Example 155, 10-[(6-Chloro-3-methoxy-2′-methyl[1,1′-biphenyl]-4-yl)carbonyl]-N-[2-(1-piperidinyl)ethyl]-10,11-dihydro-5H-pyrrolo[2,1-c][1,4]benzodiazepine-3-carboxamide]	
	COc1cccc(-c2cc(OC)c(C(=O)N3Cc4ccc(C(=O)N5CCN(CCN6CCOCC6)CC5)n4Cc4ccccc43)cc2Cl)c1 [Example 212, {10-[(6-Chloro-3,3′-dimethoxy[1,1′-biphenyl]-4-yl)carbonyl]-10,11-dihydro-5H-pyrrolo[2,1-c][1,4]benzodiazepin-3-yl}{4-[2-(4-morpholinyl)ethyl]-1-piperazinyi}methanone]	43
	Cc1ccccc1-c1ccc(C(=O)N2Cc3ccc(C(=O)N4CCC[C@H]4CN4CCCC4)n3Cc3ccccc32)cc1 [Example 264, {10-[(2′-Methyl[1,1′-biphenyl]-4-yl)carbonyl]-10,11-dihydro-5H-pyrrolo[2,1-c][1,4]benzodiazepin-3-yl}[(2S)-2-(1-pyrrolidinylmethyl)pyrrolidinyl]methanone]	12
	COc1cc(C(=O)N2Cc3ccc(C(=O)N4CC[C@@H](N(C)C)C4)n3Cc3ccccc32)ccc1-n1c(C)ccc1C [Example 322, [(3R)-3-(Dimethylamino)pyrrolidinyl]{10-[4-(2,5-dimethyl-1H-pyrrol-1-yl)-3-methoxybenzoyl]-10,11-dihydro-5H-pyrrolo[2,1-c][1,4]benzodiazepin-3-yl}methanone]	24
10	COc1ccccc1-c1ccc(C(=O)N2Cc3ccc(C(=O)NCCN4CCCCC4)n3Cc3ccccc32)cc1 [Example 152, 10-[(2′-Methoxy[1,1′-biphenyl]-4-yl)carbonyl]-N-[2-(1-piperidinyl)ethyl]-10,11-dihydro-5H-pyrrolo[2,1-c][1,4]benzodiazepine-3-carboxamide]	
	Cc1cccc(N2CCN(C(=O)c3ccc4n3Cc3ccccc3N(C(=O)c3ccc(-c5ccccc5C(F)(F)F)c(C)c3)C4)CC2C)c1 (stereo not shown) [Example 5, [3-Methyl-4-(3-methyl-phenyl)-piperazin-1-yl]-[10-(2-methyl-2′-trifluoromethyl-[1,1′-biphenyl]-4-yl)carbonyl]-10,11-dihydro-5H-pyrrolo[2,1-c][1,4]benzodiazepin-3-yl-methanone]	3
16	COc1ccccc1-c1ccc(C(=O)N2Cc3ccc(C(=O)NCCCn4ccnc4)n3Cc3ccccc32)cc1OC [Example 132, 10-[(2,2′-Dimethoxy[1,1′-biphenyl]-4-yl)carbonyl]-N-[3-(1H-imidazol-1-yl)propyl]-10,11-dihydro-5H-pyrrolo[2,1-c][1,4]benzodiazepine-3-carboxamide]	
1	Cc1cc(C(=O)N2Cc3ccc(C(=O)N4CCC(N5CCCC5)CC4)n3Cc3ccccc32)ccc1-c1ccccc1C(F)(F)F [Example 148, (10-{[2-Methyl-2′-(trifluoromethyl)[1,1′-biphenyl]-4-yl]carbonyl}-10,11-dihydro-5H-pyrrolo[2,1-c][1,4]benzodiazepin-3-yl)[4-(1-pyrrolidinyl)-1-piperidinyl]methanone]	
	Cc1ccccc1-c1ccc(C(=O)N2Cc3ccc(C(=O)N4CC[C@@H](N(C)C)C4)n3Cc3ccccc32)cc1C [Example 274, [(3R)-3-(Dimethylamino)pyrrolidinyl]{10-[(2,2′-dimethyl[1,1′-biphenyl]-4-yl)carbonyl]-10,11-dihydro-5H-pyrrolo[2,1-c][1,4]benzodiazepin-3-yl}methanone]	32
	COc1cc(C(=O)N2Cc3ccc(C(=O)N4CC[C@@H](N(C)C)C4)n3Cc3ccccc32)ccc1-c1ccccc1C [Example 281, [(3R)-3-(Dimethylamino)pyrrolidinyl]{10-[(2-methoxy-2′-methyl[1,1′-biphenyl]-4-yl)carbonyl]-10,11-dihydro-5H-pyrrolo[2,1-c][1,4]benzodiazepin-3-yl}methanone]	−9
	COc1cccc(-c2ccc(C(=O)N3Cc4ccc(C(=O)N5CC[C@@H](N(C)C)C5)n4Cc4ccccc43)cc2OC)c1 [Example 283, {10-[(2,3′-Dimethoxy[1,1′-biphenyl]-4-yl)carbonyl]-10,11-dihydro-5H-pyrrolo[2,1-c][1,4]benzodiazepin-3-yl}[(3R)-3-(dimethylamino)pyrrolidinyl]methanone]	29
